Measured values: patent publication US8436040B2, “Method of treating conditions involving PPAR-receptors with indole compounds” (Laboratoires Fournier S.A., priority 2005, dated 2013)

How the values were obtained:
db/db mice = experiment: db/db mouse model: serum glucose, triglyceride and cholesterol levels; type: in vivo; conditions: serum 4 hours after last gavage
Method: The test protocol is as follows:
Homozygous C57BL/Ks-db male mice (db/db mice), 11 to 13 weeks old at the start of the studies, are divided up into groups of 9-10 animals. The products are administered orally once a day for 5 days. One group of mice receives the vehicle only (0.5 or 1% methyl cellulose solution). A blood sample is taken from the retro-orbital sinus before treatment and 4 hours after the last gavage.
After centrifugation, the serum is collected and the cholesterol, triglyceride and glucose levels are measured using a multiparameter analyzer with commercial kits.
The results are expressed in % variation on the final day relative to the control group.

C2C12 cells = experiment: β-oxidation of 1-C14 oleate on C2C12 cells differentiated in myotubes; type: cell-based, murine; conditions: 100 μM, 48 hours incubation
Method: A second series of tests was performed with the compounds according to the invention in order to confirm the activity deduced from their affinity for the aforementioned receptors. This test consists in measuring the β-oxidation on HuH7 cells of human hepatic origin and C2C12 cells of murine muscular origin after differentiation in myotubes.
The cells are inoculated into Petri dishes containing a central well. The products are added to the culture medium and incubated for 48 hours at different concentrations. After incubation for 22 hours, C14-radiolabeled oleate (1-C14 oleate) is added to the culture medium. The β-oxidation reaction is stopped 2 hours later by the addition of 40% perchloric acid.
The CO2 liberated during the oxidation of the oleate is trapped with KOH solution and then counted.
Each test is performed three times.
The results are expressed in % variation relative to the control dishes (dishes without compounds).

[1] = 30 mg/kg orally once a day for 5 days
[2] = 100 mg/kg orally once a day for 5 days
[3] = 3 mg/kg orally once a day for 5 days

Row | Structure (SMILES) | Cholesterol, % variation on the final day relative to the control group (db/db mice; [1]) | Glucose, % variation on the final day relative to the control group (db/db mice; [1]) [%] | Triglycerides, % variation on the final day relative to the control group (db/db mice; [1]) [%] | other results
1 | O=C(O)CCc1cc2cc(Cl)ccc2n1S(=O)(=O)c1ccccc1 [Example 2, 5-Chloro-1-(phenylsulfonyl)-1H-indole-2-propanoic acid] | +30% | 0 | −7 | –
2 | O=C(O)CCc1cc2cc(C(F)(F)F)ccc2n1S(=O)(=O)c1ccccc1 [Example 4, 1-(Phenylsulfonyl)-5-(trifluoromethyl)-1H-indole-2-propanoic acid] | +41% | −30 | −12 | β-oxidation, % variation relative to the control dishes (C2C12 cells): 82%
3 | O=C(O)CCc1cc2cc(Cl)ccc2n1S(=O)(=O)c1ccc2ncsc2c1 [Example 155, 1-[(6-Benzothiazolyl)sulfonyl]-5-chloro-1H-indole-2-propanoic acid] | +38% | −35 | −41 | –
4 | O=C(O)CCCc1cc2cc(Cl)ccc2n1S(=O)(=O)c1ccc2c(c1)OCO2 [Example 163, 1-[(1,3-Benzodioxol-5-yl)sulfonyl]-5-chloro-1H-indole-2-butanoic acid] | −15% | −38 | −35 | –
5 | CC(OCc1cc2cc(Cl)ccc2n1S(=O)(=O)c1ccccc1)C(=O)O (stereo not shown) [Example 202, 2-[[5-Chloro-1-(phenylsulfonyl)-1H-indol-2-yl]methoxy]propanoic acid] | +25% | −52 | −48 | –
6 | CC(C)OC(=O)C(C)(C)Oc1ccc(C(=O)c2ccc(Cl)cc2)cc1 [Fenofibrate] | – | – | – | Cholesterol, % variation on the final day relative to the control group (db/db mice; [2]): +32%; Glucose, % variation on the final day relative to the control group (db/db mice; [2]): −9%; Triglycerides, % variation on the final day relative to the control group (db/db mice; [2]): −7%
7 | CN(CCOc1ccc(CC2SC(=O)NC2=O)cc1)c1ccccn1 (stereo not shown) [Rosiglitazone, rosiglitazone, reference compound] | – | – | – | Cholesterol, % variation on the final day relative to the control group (db/db mice; [3]): −30%; Glucose, % variation on the final day relative to the control group (db/db mice; [3]): −41%; Triglycerides, % variation on the final day relative to the control group (db/db mice; [3]): −52%
